# Assay results from patent publication US7387715B2, “Sample positioning and analysis system” (priority 1997, dated 2008).
# Non-standard residues stand in square brackets, D forms with d. Residues, ends and D or L forms follow the SMILES beside them. Phe(ol) = N[C@H](CO)Cc1ccccc1; Aib = CC(C)(N)C(=O)O
# How the values were obtained:
# [1] = Voltage-clamp current recording of alamethicin pores in a vesicle-derived membrane over a chip aperture; format: biochemical; conditions: alamethicin 0.1 μg/mL final concentration in measurement compartment, 85 mM KCl
# Experimental: In these experiments, a membrane is formed over an aperture in 85 mM KCl. Next, alamethicin is added to the measurement compartment, to a final concentration of 0.1 μg/mL.^xvii Finally, a potential is applied, and a plot of current versus time is generated.
# [2] = system: nAChR (nicotinic acetylcholine receptor); experiment: Voltage-clamp current recording of nAChR fused into a membrane on a Si/SiO2 carrier chip; format: biochemical; conditions: carbamylcholine 20 μM final concentration
# Experimental: In these experiments, a membrane is formed as above. Next, nAChR is introduced into the membrane via Ca^2+-mediated fusion. Specifically, nAChR is purified from an appropriate source, and then reconstituted into small unilamellar vesicles.^xviii Next, these vesicles are added to the measurement compartment, and then fused to the membrane by increasing the Ca^2+ concentration of the sample chamber to greater than about 1 mM. In given cases, the fusion is supported by the subsequent temporary setup of an osmotic gradient.^xix Finally, a potential is applied, and a plot of current versus time is generated. In the absence of agonists, typical receptor opening events are observed (FIG. 15A), whereas, in the presence of agonists, such as carbamylcholine (20 μM final concentration), such receptor opening events are substantially extinguished within a short time (t<100 seconds) (FIG. 15B).
compound,measurement,setting,value
CC(=O)NC(C)(C)C(=O)N1CCC[C@H]1C(=O)NC(C)(C)C(=O)N[C@@H](C)C(=O)NC(C)(C)C(=O)N[C@@H](C)C(=O)N[C@@H](CCC(N)=O)C(=O)NC(C)(C)C(=O)N[C@H](C(=O)NC(C)(C)C(=O)NCC(=O)N[C@@H](CC(C)C)C(=O)NC(C)(C)C(=O)N1CCC[C@H]1C(=O)N[C@H](C(=O)NC(C)(C)C(=O)NC(C)(C)C(=O)N[C@@H](CCC(=O)O)C(=O)N[C@@H](CCC(N)=O)C(=O)N[C@H](CO)Cc1ccccc1)C(C)C)C(C)C [alamethicin] (Ac-[Aib]P[Aib]A[Aib]AQ[Aib]V[Aib]GL[Aib]PV[Aib][Aib]EQ[Phe(ol)]),conductivities of the alamethicin pores,[1],600 pS
C[N+](C)(C)CCOC(N)=O.[Cl-] [carbamylcholine],receptor openings after addition of the agonist (desensitization),"[2]; 150 seconds after addition, 400 mM KCl, positive potentials",no receptor openings are observed
same,time within which receptor opening events are substantially extinguished in the presence of agonist,[2],< 100 s
